Assay results as given in patent US7393865B2, “Sleep inducing compounds and methods relating thereto” (Neurocrine Biosciences, Inc., priority 2004, dated 2008).

target: T1, human H1 receptor (Homo sapiens, UniProt P35367); assay: Human histamine H1 receptor binding assay; conditions: competition with 1.5 nM [pyridinyl-5-3H] Pyrilamine, crude membranes of CHO cells transfected with human H1 receptor; Ki from IC50 by Cheng-Prusoff
T1 construct: expressed in transfected cells; host or cells: CHO cells (crude membranes)
Method: Compounds of the present invention may be evaluated for binding to the histamine H1 receptor by a standard binding assay. […] Pyrilamine (˜30 Ci/mmol, Amersham TRK608) in the presence of varying concentrations of competing ligand. Non-specific binding is determined in the presence of excess (1 μM) doxepin. Bound and free ligand are separated by rapid vacuum filtration using a Packard 96-well cell harvester onto UniFilter GF/C filter plates (PerkinElmer) that has been pretreated with 1% polyethyleneimine. The filter plates are then washed with 600 μl phosphate buffered saline containing 0.01% (v/v) Triton-X100. Bound radioligand is determined by scintillation counting using a TopCount-NXT (Packard). Binding data is analyzed by nonlinear, least-squares curve fitting algorithms using GraphPad Prism (GraphPad Software, Inc. San Diego, Calif.) or ActivityBase (IDBS, Guildford, Surrey, UK).

T1 sequence (P35367 whole entry): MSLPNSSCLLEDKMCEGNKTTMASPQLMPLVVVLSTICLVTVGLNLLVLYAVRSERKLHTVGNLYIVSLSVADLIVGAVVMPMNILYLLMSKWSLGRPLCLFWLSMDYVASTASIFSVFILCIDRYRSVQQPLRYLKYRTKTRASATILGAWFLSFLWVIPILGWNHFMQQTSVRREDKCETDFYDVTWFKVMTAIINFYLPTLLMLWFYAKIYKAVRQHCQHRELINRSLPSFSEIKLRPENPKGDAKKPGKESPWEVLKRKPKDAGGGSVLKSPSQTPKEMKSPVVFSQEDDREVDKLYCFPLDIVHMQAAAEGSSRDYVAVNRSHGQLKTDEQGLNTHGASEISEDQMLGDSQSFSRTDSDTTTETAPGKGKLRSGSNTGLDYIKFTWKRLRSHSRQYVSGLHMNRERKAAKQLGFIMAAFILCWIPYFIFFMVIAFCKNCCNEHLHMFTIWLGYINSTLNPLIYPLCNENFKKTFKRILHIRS

| SMILES | Ki |
| --- | --- |
| C[C@@H](c1ncccc1F)c1c(CCN(C)C)sc2ccccc12 [Compound 18-4, (2-{3-[(R)-1-(3-Fluoro-pyridin-2-yl)-ethyl]-benzo[b]thiophen-2-yl}-ethyl)-dimethyl-amine] | ≤ 1 µM |
| CC(c1cscn1)c1c(CCN2CCCC2)sc2ccccc12 (stereo not drawn) [Compound 19-4, 4-{1-[2-(2-Pyrrolidin-1-yl-ethyl)-benzo[b]thiophen-3-yl]-ethyl}-thiazole] | ≤ 1 µM |
| CN(C)CCc1sc2ccccc2c1C(C)(O)c1ccccn1 (stereo not drawn) [Compound 6-1, 1-[2-(2-Dimethylamino-ethyl)-benzo[b]thiophen-3-yl]-1-pyridin-2-yl-ethanol] | ≤ 1 µM |
| CN(C)CCc1sc2ccccc2c1Cc1cncnc1 [Compound 13-4, Dimethyl-[2-(3-pyrimidin-5-ylmethyl-benzo[b]thiophen-2-yl)-ethyl]-amine] | ≤ 1 µM |
| CN(C)CCc1sc2ccccc2c1Cc1cccc(O)n1 [Compound 13-8, 6-[2-(2-Dimethylamino-ethyl)-benzo[b]thiophen-3-ylmethyl]-pyridin-2-ol] | ≤ 1 µM |
| CN(C)CCc1sc2ccccc2c1Cc1cncn1C [Compound 13-11, Dimethyl-{2-[3-(3-methyl-3H-imidazol-4-ylmethyl)-benzo[b]thiophen-2-yl]-ethyl}-amine] | ≤ 1 µM |
| CC(c1ncccc1F)c1c(CCN(C)C)sc2ccccc12 (stereo not drawn) [Compound 18-3, (2-{3-[1-(3-Fluoro-pyridin-2-yl)-ethyl]-benzo[b]thiophen-2-yl}-ethyl)-dimethyl-amine] | ≤ 1 µM |
| CC(c1cccnc1Cl)c1c(CCN(C)C)sc2ccccc12 (stereo not drawn) [Compound 25-4, (2-{3-[1-(2-Chloro-pyridin-3-yl)-ethyl]-benzo[b]thiophen-2-yl}-ethyl)-dimethyl-amine] | ≤ 1 µM |
| COc1ncccc1[C@@H](C)c1c(CCN(C)C)sc2ccccc12 [Compound 15-5, Dimethyl-(2-{3-[(R)-1-(2-methoxy-pyridin-3-yl)-ethyl]-benzo[b]thiophen-2-yl}-ethyl)-amine] | ≤ 1 µM |
| C[C@@H](c1ccccn1)c1c(CCN2CCCC2)sc2ccccc12 [Compound 20-3, 2-{(R)-1-[2-(2-Pyrrolidin-1-yl-ethyl)-benzo[b]thiophen-3-yl]-ethyl}-pyridine] | ≤ 1 µM |
| CC(c1ccc(F)cc1)c1c(CCN(C)C)sc2ccccc12 (stereo not drawn) [Compound 3-4, (2-{3-[1-(4-Fluoro-phenyl)-ethyl]-benzo[b]thiophen-2-yl}-ethyl)-dimethyl-amine] | ≤ 1 µM |
| CC(c1cscn1)c1c(CCN(C)C)sc2ccccc12 (stereo in doubt) [Compound 16-4, Dimethyl-{2-[3-((R)-1-thiazol-4-yl-ethyl)-benzo[b]thiophen-2-yl]-ethyl}-amine] | ≤ 1 µM |
| Cc1ccc2c(C(C)c3ccccn3)c(CCN(C)C)sc2c1 (stereo not drawn) [Compound 4-2, Dimethyl-{2-[6-methyl-3-(1-pyridin-2-yl-ethyl)-benzo[b]thiophen-2-yl]-ethyl}-amine] | ≤ 1 µM |
| C[C@H](c1ccccn1)c1c(CCN2CCCC2)sc2ccccc12 [Compound 20-2, 2-{(S)-1-[2-(2-Pyrrolidin-1-yl-ethyl)-benzo[b]thiophen-3-yl]-ethyl}-pyridine] | ≤ 1 µM |
| CC(c1cccc(F)n1)c1c(CCN(C)C)sc2ccccc12 (stereo not drawn) [Compound 15-3] | ≤ 1 µM |
| Cc1ccc2c([C@@H](C)c3ccccn3)c(CCN(C)C)sc2c1 [Compound 4-3, Dimethyl-{2-[6-methyl-3-((R)-1-pyridin-2-yl-ethyl)-benzo[b]thiophen-2-yl]-ethyl}-amine] | ≤ 1 µM |
| C[C@@H](c1cncs1)c1c(CCN(C)C)sc2ccccc12 [Compound 17-3, Dimethyl-{2-[3-((R)-1-thiazol-5-yl-ethyl)-benzo[b]thiophen-2-yl]-ethyl}-amine] | ≤ 1 µM |

| SMILES | Ki |
| --- | --- |
| CCCN(C)CCc1sc2ccccc2c1C(C)c1ccccn1 (stereo not drawn) [Compound 9-2, Methyl-propyl-{2-[3-(1-pyridin-2-yl-ethyl)-benzo[b]thiophen-2-yl]-ethyl}-amine] | ≤ 1 µM |
| COc1cccc(C(C)c2c(CCN(C)C)sc3ccccc23)n1 (stereo not drawn) [Compound 15-2, (2-{3-[1-(6-Methoxy-pyridin-2-yl)-ethyl]-benzo[b]thiophen-2-yl}-ethyl)-dimethyl-amine] | ≤ 1 µM |
| CC(c1ccccn1)c1c(CCN(C)C)sc2ccccc12 (stereo not drawn) [Compound 6-3, Dimethyl-{2-[3-(1-pyridin-2-yl-ethyl)-benzo[b]thiophen-2-yl]-ethyl}-amine] | ≤ 1 µM |
| COc1ncccc1C(C)c1c(CCN(C)C)sc2ccccc12 (stereo not drawn) [Compound 15-4, Dimethyl-(2-{3-[1-(2-methoxy-pyridin-3-yl)-ethyl]-benzo[b]thiophen-2-yl}-ethyl)-amine] | ≤ 1 µM |
| CN(C)CCc1sc2ccccc2c1C(C)(O)c1ccc(F)cc1 (stereo not drawn) [Compound 3-3, 1-[2-(2-Dimethylamino-ethyl)-benzo[b]thiophen-3-yl]-1-(4-fluoro-phenyl)-ethanol] | ≤ 1 µM |
| C=C(c1ccncc1)c1c(CCN(C)C)sc2ccccc12 [Compound 6-5, Dimethyl-{2-[3-(1-pyridin-4-yl-vinyl)-benzo[b]thiophen-2-yl]-ethyl}-amine] | ≤ 1 µM |
| C[C@@H](c1cscn1)c1c(CCN(C)C)sc2ccccc12 [Compound 16-3, Dimethyl-{2-[3-((R)-1-thiazol-4-yl-ethyl)-benzo[b]thiophen-2-yl]-ethyl}-amine] | ≤ 1 µM |
| C[C@@H](c1cscn1)c1c(CCN2CCCC2)sc2ccccc12 [Compound 19-5, 4-{(R)-1-[2-(2-Pyrrolidin-1-yl-ethyl)-benzo[b]thiophen-3-yl]-ethyl}-thiazole] | ≤ 1 µM |
| C[C@H](c1cncs1)c1c(CCN(C)C)sc2ccccc12 [Compound 17-4, Dimethyl-{2-[3-((S)-1-thiazol-5-yl-ethyl)-benzo[b]thiophen-2-yl]-ethyl}-amine] | ≤ 1 µM |
| CC(c1ccccn1)c1c(CCN2CCCC2)sc2ccccc12 (stereo not drawn) [Compound 20-1, 2-{1-[2-(2-Pyrrolidin-1-yl-ethyl)-benzo[b]thiophen-3-yl]-ethyl}-pyridine] | ≤ 1 µM |
| CC(c1cscn1)c1c(CCN(C)C)sc2ccccc12 (stereo not drawn) [Compound 16-2, Dimethyl-{2-[3-(1-thiazol-4-yl-ethyl)-benzo[b]thiophen-2-yl]-ethyl}-amine] | ≤ 1 µM |
| Cc1ccc(C(C)c2c(CCN(C)C)sc3ccccc23)cn1 (stereo not drawn) [Compound 10-3, Dimethyl-(2-{3-[1-(6-methyl-pyridin-3-yl)-ethyl]-benzo[b]thiophen-2-yl}-ethyl)-amine] | ≤ 1 µM |
| C[C@H](c1ncccc1F)c1c(CCN(C)C)sc2ccccc12 [Compound 18-5, (2-{3-[(S)-1-(3-Fluoro-pyridin-2-yl)-ethyl]-benzo[b]thiophen-2-yl}-ethyl)-dimethyl-amine] | ≤ 1 µM |
| CNCCc1sc2ccccc2c1C(C)c1ccccn1 (stereo not drawn) [Compound 9-1, Methyl-{2-[3-(1-pyridin-2-yl-ethyl)-benzo[b]thiophen-2-yl]-ethyl}-amine] | ≤ 1 µM |
| CC(c1cnccn1)c1c(CCN(C)C)sc2ccccc12 (stereo not drawn) [Compound 11-2, Dimethyl-{2-[3-(1-pyrazin-2-yl-ethyl)-benzo[b]thiophen-2-yl]-ethyl}-amine] | ≤ 1 µM |
| COc1cccnc1C(C)c1c(CCN(C)C)sc2ccccc12 (stereo not drawn) [Compound 6-10, Dimethyl-(2-{3-[1-(3-methoxy-pyridin-2-yl)-ethyl]-benzo[b]thiophen-2-yl}-ethyl)-amine] | ≤ 1 µM |
